# Laboratory results taken from PubChem BioAssay AID268 (DTP/NCI, 2004).
# “And” between values parts separate entries of the source, which are not always exact repeats. Equal values may be shown once.
# System: CD2F1 mice, P1798 lymphosarcoma sc, tumor weight T/C
# Experiment: NCI In Vivo Anticancer Drug Screen. Data for tumor model P1798 Lymphosarcoma (subcutaneous) in CD2F1 (CDF1) mice
# Details: endpoint: mean tumor weight, higher = larger tumour
# Description: The antitumor activity of compounds was measured in mice bearing transplantable tumors. Survival or tumor size were measured and the results are expressed as the measurement made in the treated group (T) divided by the measurement made in the vehicle treated control group (C). The tumor model used in this assay is P1798 Lymphosarcoma (subcutaneous) in CD2F1 (CDF1) mice
# [1] = dose: 12.5 mg/kg/injection, schedule: Q01DX010 (sc), vehicle: steriod suspending solution
# [2] = dose: 50.0 mg/kg/injection, schedule: Q01DX010 (sc), vehicle: steriod suspending solution
structure (smiles),measurement,setting,value
CCC1=C(c2cc(Cl)c3ccccc3c2OCC(=O)O)OC(CC)(C(=O)c2cc(Cl)c3ccccc3c2OCC(=O)O)CC1 (stereo not drawn),T/C,"dose: 240.0 mg/kg/injection, schedule: Q01DX010 (ip), vehicle: steriod suspending solution",74 % of control
same,T/C,"dose: 480.0 mg/kg/injection, schedule: Q01DX010 (ip), vehicle: steriod suspending solution",80 % of control
C[C@]12CC[C@@H]3c4ccc(O)cc4CC[C@H]3[C@@H]1C[C@H](O)C2,T/C,"dose: 6.25 mg/kg/injection, schedule: Q01DX010 (sc), vehicle: steriod suspending solution",102 % of control
same,T/C,[1],95 % of control and 109 % of control
same,T/C,[2],111 % of control and 112 % of control
CC(=O)O[C@H]1CC[C@H]2[C@@H]3CC[C@H]4CCCC[C@]4(C)[C@H]3CC[C@]12C,T/C,[1],104 % of control and 121 % of control
same,T/C,"dose: 25.0 mg/kg/injection, schedule: Q01DX010 (sc), vehicle: steriod suspending solution",103 % of control and 85 % of control
same,T/C,[2],103 % of control
CC1(C)O[C@@H]2C[C@H]3[C@@H]4CCC5=CC(=O)C=C[C@]5(C)[C@@]4(F)[C@@H](O)C[C@]3(C)[C@]2(C(=O)CO)O1,T/C,"dose: 0.5 mg/kg/injection, schedule: Q01DX005 (sc), vehicle: steriod suspending solution",56 % of control
same,T/C,"dose: 1.0 mg/kg/injection, schedule: Q01DX005 (sc), vehicle: steriod suspending solution",59 % of control
same,T/C,"dose: 1.0 mg/kg/injection, schedule: Q01DX010 (sc), vehicle: steriod suspending solution",118 % of control
same,T/C,"dose: 1.0 mg/kg/injection, schedule: Q02DX010 (sc), vehicle: steriod suspending solution",101 % of control
same,T/C,"dose: 1.0 mg/kg/injection, schedule: Q03DX004 (sc), vehicle: steriod suspending solution",71 % of control
same,T/C,"dose: 2.0 mg/kg/injection, schedule: Q01DX005 (sc), vehicle: steriod suspending solution",33 % of control
same,T/C,"dose: 2.0 mg/kg/injection, schedule: Q01DX010 (sc), vehicle: steriod suspending solution",39 % of control
same,T/C,"dose: 2.0 mg/kg/injection, schedule: Q02DX010 (sc), vehicle: steriod suspending solution",80 % of control
same,T/C,"dose: 2.0 mg/kg/injection, schedule: Q03DX004 (sc), vehicle: steriod suspending solution",26 % of control
same,T/C,"dose: 3.75 mg/kg/injection, schedule: Q01DX010 (sc), vehicle: steriod suspending solution",1 % of control
same,T/C,"dose: 4.0 mg/kg/injection, schedule: Q01DX005 (sc), vehicle: steriod suspending solution",16 % of control
same,T/C,"dose: 4.0 mg/kg/injection, schedule: Q01DX010 (sc), vehicle: steriod suspending solution",23 % of control
same,T/C,"dose: 4.0 mg/kg/injection, schedule: Q02DX010 (sc), vehicle: steriod suspending solution",113 % of control
same,T/C,"dose: 4.0 mg/kg/injection, schedule: Q03DX004 (sc), vehicle: steriod suspending solution",7 % of control
CC(=O)OC(C)(C)/C=C/C(=O)[C@](C)(O)[C@H]1[C@H](O)C[C@@]2(C)[C@@H]3CC=C4[C@@H](C[C@H](O)C(=O)C4(C)C)[C@]3(C)C(=O)C[C@]12C,T/C,"dose: 0.1 mg/kg/injection, schedule: Q01DX009 (ip), vehicle: saline",99 % of control
same,T/C,"dose: 0.16 mg/kg/injection, schedule: Q01DX010 (ip), vehicle: saline",71 % of control
same,T/C,"dose: 0.2 mg/kg/injection, schedule: Q01DX009 (ip), vehicle: saline",68 % of control
same,T/C,"dose: 0.2 mg/kg/injection, schedule: Q01DX011 (ip), vehicle: carboxymethylcellulose (CMC)",106 % of control
same,T/C,"dose: 0.25 mg/kg/injection, schedule: Q01DX010 (ip), vehicle: saline",70 % of control
same,T/C,"dose: 0.3 mg/kg/injection, schedule: Q01DX011 (ip), vehicle: carboxymethylcellulose (CMC)",56 % of control
same,T/C,"dose: 0.38 mg/kg/injection, schedule: Q01DX010 (ip), vehicle: saline",70 % of control
same,T/C,"dose: 0.4 mg/kg/injection, schedule: Q01DX009 (ip), vehicle: saline",77 % of control
same,T/C,"dose: 0.57 mg/kg/injection, schedule: Q01DX010 (ip), vehicle: saline",62 % of control
same,T/C,"dose: 0.6 mg/kg/injection, schedule: Q01DX011 (ip), vehicle: carboxymethylcellulose (CMC)",82 % of control
same,T/C,"dose: 0.8 mg/kg/injection, schedule: Q01DX011 (ip), vehicle: carboxymethylcellulose (CMC)",11 % of control
